# According to ChEMBL document CHEMBL1201861, “Genomics of Drug Sensitity in Cancer screening data, Wellcome Trust Sanger Institute”:
# What was measured:
# [1] = test system: COR-L105; assay: cells; format: functional, cell-based; conditions: Homo sapiens
# Description: SANGER: Inhibition of human COR-L105 cell growth in a cell viability assay.
# [2] = test system: CPC-N; assay: cells; format: functional, cell-based, Homo sapiens; conditions: Homo sapiens, CPC-N;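 further: growth inhibition of CPC-N cells, with a cell viability assay as the readout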
# Description: SANGER: Inhibition of human CPC-N cell growth in a cell viability assay.
# [3] = test system: D-392MG; assay: cells; format: functional, cell-based; conditions: Homo sapiens
# [4] = test system: DMS-273; assay: cells; format: functional, cell-based; conditions: Homo sapiens
# Description: SANGER: Inhibition of human DMS-273 cell growth in a cell viability assay.
# [5] = test system: DoTc2-4510; assay: cells; format: functional, cell-based; conditions: Homo sapiens
# [6] = test system: EFM-19; assay: cells; format: functional, cell-based; conditions: Homo sapiens;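 further: growth inhibition of human EFM-19 cells, measured in a cell viability assay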
# Description: SANGER: Inhibition of human EFM-19 cell growth in a cell viability assay.
# [7] = test system: EFO-21; assay: cells; format: functional, cell-based; conditions: Homo sapiens;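 further: growth inhibition of EFO-21 cells measured with a viability assay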
# Description: SANGER: Inhibition of human EFO-21 cell growth in a cell viability assay.
# [8] = test system: EFO-27; assay: cells; format: functional, cell-based; conditions: Homo sapiens;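 further: growth inhibition of EFO-27 cells, read out with a cell viability assay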
# Description: SANGER: Inhibition of human EFO-27 cell growth in a cell viability assay.
# [9] = test system: EW-24; assay: cells; format: functional, cell-based, Homo sapiens; conditions: Homo sapiens, EW-24;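 further: human EW-24 cancer cell line, growth inhibition read out via a cell viability assay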
# Description: SANGER: Inhibition of human EW-24 cell growth in a cell viability assay.
# [10] = test system: G-402; assay: cells; format: functional, cell-based; conditions: Homo sapiens
# Description: SANGER: Inhibition of human G-402 cell growth in a cell viability assay.
# [11] = test system: GCT; assay: cells; format: functional, cell-based; conditions: Homo sapiens;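 further: GCT cell line proliferation inhibition, read out with a cell viability assay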
# Description: SANGER: Inhibition of human GCT cell growth in a cell viability assay.
# [12] = test system: HCT-116; assay: cells; format: functional, cell-based; conditions: Homo sapiens
# Description: SANGER: Inhibition of human HCT-116 cell growth in a cell viability assay.
# [13] = test system: HMV-2 cell line; assay: cells; format: functional, cell-based; conditions: Homo sapiens;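 further: growth inhibition of HMV-II cells, read out with a cell viability assay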
# Description: SANGER: Inhibition of human HMV-II cell growth in a cell viability assay.
# [14] = test system: HSC-4; assay: cells; format: functional, cell-based; conditions: Homo sapiens;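 further: growth inhibition of human HSC-4 cells, read out with a cell viability assay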
# Description: SANGER: Inhibition of human HSC-4 cell growth in a cell viability assay.
# [15] = test system: HT-29; assay: cells; format: functional, cell-based; conditions: Homo sapiens;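 further: growth inhibition of human HT-29 cells, read out by a cell viability assay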
# Description: SANGER: Inhibition of human HT-29 cell growth in a cell viability assay.
# [16] = test system: HuTu80; assay: cells; format: functional, cell-based, Homo sapiens, HUTU-80; conditions: Homo sapiens, HuTu80;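 further: growth inhibition of HuTu80 human cells, determined with a cell viability readout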
# Description: SANGER: Inhibition of human HUTU-80 cell growth in a cell viability assay.
# [17] = test system: HuCCT-1; assay: cells; format: functional, cell-based, HuCCT1; conditions: Homo sapiens;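 further: growth inhibition of HuCCT-1 cells, read out by a cell viability assay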
# Description: SANGER: Inhibition of human HuCCT1 cell growth in a cell viability assay.
# [18] = test system: HuO-3N1; assay: cells; format: functional, cell-based; conditions: Homo sapiens;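 further: cell viability readout used to measure how strongly compounds suppress proliferation of human HuO-3N1 cells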
# Description: SANGER: Inhibition of human HuO-3N1 cell growth in a cell viability assay.
# [19] = test system: IM-9; assay: SANGER: Inhibition of human IM-9 cell growth in a cell viability assay.; format: functional, cell-based; conditions: Homo sapiens, IM-9
# [20] = test system: JIYOYE; assay: cells; format: functional, cell-based, Homo sapiens; conditions: Homo sapiens, JIYOYE
# Description: SANGER: Inhibition of human JiyoyeP-2003 cell growth in a cell viability assay.
# [21] = test system: KYSE-410; assay: cells; format: functional, cell-based; conditions: Homo sapiens;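 further: growth inhibition of KYSE-410 cells, measured through a cell viability readout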
# Description: SANGER: Inhibition of human KYSE-410 cell growth in a cell viability assay.
# [22] = test system: KYSE-70 cell line; assay: cells; format: functional, cell-based; conditions: Homo sapiens;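 further: cell viability assay read-out, with IC50 expressing suppression of KYSE-70 cell growth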
# Description: SANGER: Inhibition of human KYSE-70 cell growth in a cell viability assay.
# [23] = test system: LCLC-97TM1; assay: cells; format: functional, cell-based; conditions: Homo sapiens;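 further: cell viability assay measuring growth inhibition of human LCLC-97TM1 cells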
# Description: SANGER: Inhibition of human LCLC-97TM1 cell growth in a cell viability assay.
# [24] = test system: MC-CAR; assay: cells; format: functional, cell-based, Homo sapiens; conditions: Homo sapiens, MC-CAR;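 further: growth inhibition of the human MC-CAR cell line, read out by a cell viability assay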
# Description: SANGER: Inhibition of human MC-CAR cell growth in a cell viability assay.
# [25] = test system: MDA-MB-231; assay: cells; format: functional, cell-based; conditions: Homo sapiens
# Description: SANGER: Inhibition of human MDA-MB-231 cell growth in a cell viability assay.
# [26] = test system: MFE-280; assay: cells; format: functional, cell-based; conditions: Homo sapiens;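 further: growth inhibition of MFE-280 cells, determined with a cell viability readout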
# Description: SANGER: Inhibition of human MFE-280 cell growth in a cell viability assay.
# [27] = test system: NALM-6; assay: cells; format: functional, cell-based, Homo sapiens; conditions: Homo sapiens, NALM-6;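 further: growth inhibition of NALM-6 cells, read out with a cell viability assay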
# Description: SANGER: Inhibition of human NALM-6 cell growth in a cell viability assay.
# [28] = test system: NCCIT; assay: SANGER: Inhibition of human NCCIT cell growth in a cell viability assay.; format: functional, cell-based; conditions: Homo sapiens, NCCIT
# [29] = test system: NCI-H1755; assay: cells; format: functional, cell-based; conditions: Homo sapiens;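 further: cell viability readout used to measure growth inhibition of NCI-H1755 cells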
# Description: SANGER: Inhibition of human NCI-H1755 cell growth in a cell viability assay.
# [30] = test system: NCI-H2030; assay: cells; format: functional, cell-based; conditions: Homo sapiens;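 further: growth inhibition of human NCI-H2030 cells, read out by a cell viability assay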
# Description: SANGER: Inhibition of human NCI-H2030 cell growth in a cell viability assay.
# [31] = test system: NCI-H2081; assay: cells; format: functional, cell-based, Homo sapiens; conditions: Homo sapiens, NCI-H2081;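 further: growth inhibition of human NCI-H2081 cells, read out with a cell viability assay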
# Description: SANGER: Inhibition of human NCI-H2081 cell growth in a cell viability assay.
# [32] = test system: NCI-H2087; assay: cells; format: functional, cell-based; conditions: Homo sapiens;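 further: growth inhibition determined with a cell viability readout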
# Description: SANGER: Inhibition of human NCI-H2087 cell growth in a cell viability assay.
# [33] = test system: NCI-H2196; assay: cells; format: functional, cell-based, Homo sapiens; conditions: Homo sapiens, NCI-H2196; read-out: IC50;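 further: cell viability assay used as the readout of growth inhibition in NCI-H2196 cells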
# Description: SANGER: Inhibition of human NCI-H2196 cell growth in a cell viability assay.
# [34] = test system: NCI-H2342; assay: cells; format: functional, cell-based; conditions: Homo sapiens;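 further: growth inhibition of the cancer cell line, determined with a cell viability assay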
# Description: SANGER: Inhibition of human NCI-H2342 cell growth in a cell viability assay.
# [35] = test system: NCI-H2405; assay: cells; format: functional, cell-based; conditions: Homo sapiens;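 further: growth inhibition of the human cell line, read out with a cell viability assay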
# Description: SANGER: Inhibition of human NCI-H2405 cell growth in a cell viability assay.
# [36] = test system: NCI-H292; assay: cells; format: functional, cell-based; conditions: Homo sapiens;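 further: growth inhibition of NCI-H292 cells, read out with a cell viability assay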
# Description: SANGER: Inhibition of human NCI-H292 cell growth in a cell viability assay.
# [37] = test system: NCI-H748; assay: cells; format: functional, cell-based, Homo sapiens; conditions: Homo sapiens, NCI-H748;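 further: growth inhibition of NCI-H748 cells, measured by a cell viability assay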
# Description: SANGER: Inhibition of human NCI-H748 cell growth in a cell viability assay.
# [38] = test system: NUGC-3; assay: cells; format: functional, cell-based; conditions: Homo sapiens;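 further: growth inhibition of human NUGC-3 cells, read out with a cell viability assay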
# Description: SANGER: Inhibition of human NUGC-3 cell growth in a cell viability assay.
# [39] = test system: P31-FUJ; assay: cells; format: functional, cell-based, Homo sapiens; conditions: Homo sapiens, P31-FUJ;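 further: growth inhibition of P31-FUJ cells, read out with a viability assay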
# Description: SANGER: Inhibition of human P31-FUJ cell growth in a cell viability assay.
# [40] = test system: RD; assay: cells; format: functional, cell-based; conditions: Homo sapiens
# Description: SANGER: Inhibition of human RD cell growth in a cell viability assay.
# [41] = test system: RPMI-6666; assay: cells; format: functional, cell-based, Homo sapiens; conditions: Homo sapiens, RPMI-6666
# Description: SANGER: Inhibition of human RPMI-6666 cell growth in a cell viability assay.
# [42] = test system: S-117; assay: cells; format: functional, cell-based; conditions: Homo sapiens
# Description: SANGER: Inhibition of human S-117 cell growth in a cell viability assay.
# [43] = test system: SCC-25; assay: cells; format: functional, cell-based; conditions: Homo sapiens;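 further: growth inhibition of SCC-25 cells, measured with a cell viability assay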
# Description: SANGER: Inhibition of human SCC-25 cell growth in a cell viability assay.
# [44] = test system: SNU-387; assay: cells; format: functional, cell-based; conditions: Homo sapiens
# Description: SANGER: Inhibition of human SNU-387 cell growth in a cell viability assay.
# [45] = test system: SUP-T1; assay: cells; format: functional, cell-based, Homo sapiens; conditions: Homo sapiens, SUP-T1;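 further: growth inhibition of human SUP-T1 cells, read out as cell viability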
# Description: SANGER: Inhibition of human SUP-T1 cell growth in a cell viability assay.
# [46] = test system: SW1990; assay: cells; format: functional, cell-based; conditions: Homo sapiens
# Description: SANGER: Inhibition of human SW1990 cell growth in a cell viability assay.
# [47] = test system: SW48; assay: cells; format: functional, cell-based; conditions: Homo sapiens;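 further: growth inhibition of SW48 cells, read out with a cell viability assay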
# Description: SANGER: Inhibition of human SW48 cell growth in a cell viability assay.
# [48] = test system: SW780; assay: cells; format: functional, cell-based; conditions: Homo sapiens;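 further: growth inhibition of the cells, read out with a cell viability assay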
# Description: SANGER: Inhibition of human SW780 cell growth in a cell viability assay.
# [49] = test system: T98G; assay: cells; format: functional, cell-based; conditions: Homo sapiens;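 further: growth inhibition of T98G cells, read out by a cell viability assay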
# Description: SANGER: Inhibition of human T98G cell growth in a cell viability assay.
# [50] = test system: TALL-1; assay: cells; format: functional, cell-based, Homo sapiens; conditions: Homo sapiens, TALL-1;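 further: growth inhibition of cultured human TALL-1 cells, read out by a cell viability assay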
# Description: SANGER: Inhibition of human TALL-1 cell growth in a cell viability assay.
# [51] = test system: 8505C; assay: cells; format: functional, cell-based; conditions: Homo sapiens
# Description: SANGER: Inhibition of human 8505C cell growth in a cell viability assay.
# [52] = test system: A204; assay: cells; format: functional, cell-based; conditions: Homo sapiens;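 further: growth inhibition of human A204 cells, read out with a cell viability assay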
# Description: SANGER: Inhibition of human A204 cell growth in a cell viability assay.
# [53] = test system: A-427; assay: cells; format: functional, cell-based; conditions: Homo sapiens;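 further: growth inhibition of human A-427 cells, read out by a cell viability assay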
# Description: SANGER: Inhibition of human A427 cell growth in a cell viability assay.
# [54] = test system: BHT-101; assay: cells; format: functional, cell-based; conditions: Homo sapiens
# Description: SANGER: Inhibition of human BHT-101 cell growth in a cell viability assay.
# [55] = test system: CAKI-1; assay: cells; format: functional, cell-based; conditions: Homo sapiens;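 further: growth inhibition of CAKI-1 cells, measured by a cell viability assay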
# Description: SANGER: Inhibition of human CAKI-1 cell growth in a cell viability assay.
# [56] = test system: TUR; assay: cells; format: functional, cell-based, Homo sapiens; conditions: Homo sapiens, TUR;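 further: growth inhibition of human TUR cells, read out with a cell viability assay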
# Description: SANGER: Inhibition of human TUR cell growth in a cell viability assay.
# [57] = test system: UMC-11; assay: cells; format: functional, cell-based; conditions: Homo sapiens;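 further: growth inhibition of UMC-11 cells, read out with a cell viability assay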
# Description: SANGER: Inhibition of human UMC-11 cell growth in a cell viability assay.
# [58] = test system: VM-CUB-1; assay: cells; format: functional, cell-based; conditions: Homo sapiens;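 further: cell viability assay measuring growth inhibition of the human VM-CUB-1 cell line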
# Description: SANGER: Inhibition of human VM-CUB-1 cell growth in a cell viability assay.
# [59] = test system: CHP-212; assay: cells; format: functional, cell-based; conditions: Homo sapiens
# Description: SANGER: Inhibition of human CHP-212 cell growth in a cell viability assay.
smiles,measurement,setting,value
O=S(=O)(O)c1ccc2cc(/N=N/c3cc(S(=O)(=O)O)c4cccnc4c3O)ccc2c1,IC50,[1],> 16 µM
same,IC50,[2],> 16 µM
same,IC50,[3],> 16 µM
same,IC50,[4],> 16 µM
same,IC50,[5],> 16 µM
same,IC50,[6],> 16 µM
same,IC50,[7],> 16 µM
same,IC50,[8],> 16 µM
same,IC50,[9],> 16 µM
same,IC50,[10],> 16 µM
same,IC50,[11],> 16 µM
same,IC50,[12],> 16 µM
same,IC50,[13],> 16 µM
same,IC50,[14],> 16 µM
same,IC50,[15],> 16 µM
same,IC50,[16],> 16 µM
same,IC50,[17],> 16 µM
same,IC50,[18],> 16 µM
same,IC50,[19],> 16 µM
same,IC50,[20],> 16 µM
same,IC50,[21],> 16 µM
same,IC50,[22],> 16 µM
same,IC50,[23],> 16 µM
same,IC50,[24],> 16 µM
same,IC50,[25],> 16 µM
same,IC50,[26],> 16 µM
same,IC50,[27],> 16 µM
same,IC50,[28],> 16 µM
same,IC50,[29],> 16 µM
same,IC50,[30],> 16 µM
same,IC50,[31],> 16 µM
same,IC50,[32],> 16 µM
same,IC50,[33],> 16 µM
same,IC50,[34],> 16 µM
same,IC50,[35],> 16 µM
same,IC50,[36],> 16 µM
same,IC50,[37],> 16 µM
same,IC50,[38],> 16 µM
same,IC50,[39],> 16 µM
same,IC50,[40],> 16 µM
same,IC50,[41],> 16 µM
same,IC50,[42],> 16 µM
same,IC50,[43],> 16 µM
same,IC50,[44],> 16 µM
same,IC50,[45],> 16 µM
same,IC50,[46],> 16 µM
same,IC50,[47],> 16 µM
same,IC50,[48],> 16 µM
same,IC50,[49],> 16 µM
same,IC50,[50],> 16 µM
same,IC50,[51],> 16 µM
same,IC50,[52],> 16 µM
same,IC50,[53],> 16 µM
same,IC50,[54],> 16 µM
same,IC50,[55],> 16 µM
same,IC50,[56],> 16 µM
same,IC50,[57],> 16 µM
same,IC50,[58],> 16 µM
same,IC50,[59],> 16 µM
CCCCCCCCCCCC1=C(O)C(=O)C=C(O)C1=O [EMBELIN],IC50,[1],22.3 µM
same,IC50,[2],> 32 µM
same,IC50,[3],16.6 µM
same,IC50,[4],4.06 µM
same,IC50,[5],14.2 µM
same,IC50,[6],4.91 µM
same,IC50,[7],15.6 µM
same,IC50,[8],> 32 µM
same,IC50,[9],> 32 µM
same,IC50,[10],11.3 µM
same,IC50,[11],> 32 µM
same,IC50,[12],28.5 µM
same,IC50,[13],4.61 µM
same,IC50,[14],11.1 µM
same,IC50,[15],7.52 µM
same,IC50,[16],2.35 µM
same,IC50,[17],9.92 µM
same,IC50,[18],> 32 µM
same,IC50,[19],> 32 µM
same,IC50,[20],6.94 µM
same,IC50,[21],6.38 µM
same,IC50,[22],15.1 µM
same,IC50,[23],5.96 µM
same,IC50,[24],4.58 µM
same,IC50,[25],21.8 µM
same,IC50,[26],15.7 µM
same,IC50,[27],9.09 µM
same,IC50,[28],19.2 µM
same,IC50,[29],> 32 µM
same,IC50,[30],12.7 µM
same,IC50,[31],> 32 µM
same,IC50,[32],5.45 µM
same,IC50,[33],> 32 µM
same,IC50,[34],6.99 µM
same,IC50,[35],8 µM
same,IC50,[36],29.4 µM
same,IC50,[37],> 32 µM
same,IC50,[38],9.18 µM
same,IC50,[39],> 32 µM
same,IC50,[40],15.3 µM
same,IC50,[41],8.67 µM
same,IC50,[42],3.63 µM
same,IC50,[43],> 32 µM
same,IC50,[44],27.2 µM
same,IC50,[45],7.32 µM
same,IC50,[46],6.49 µM
same,IC50,[47],31.1 µM
same,IC50,[48],> 32 µM
same,IC50,[49],19.6 µM
same,IC50,[50],> 32 µM
same,IC50,[51],14.1 µM
same,IC50,[52],17.4 µM
same,IC50,[53],> 32 µM
same,IC50,[54],20 µM
same,IC50,[55],> 32 µM
same,IC50,[56],> 32 µM
same,IC50,[57],> 32 µM
same,IC50,[58],10.8 µM
same,IC50,[59],3.12 µM
